The target of one data set is PAR-1 receptor (Homo sapiens (Human), UniProt P25116). Nature of the data set: PAR-1 FLIPR Assay. Type of data set: cell-based. The settings on record: for IC50: HEK 293 cells, calcium signal after PAR-1 selective receptor-activating peptide at 80% activation. How it is done:
This assay measures the potency of the inventive compounds as PAR-1 receptor antagonists.
Frozen HEK 293 Cells were plated in 384-well PDL coated plates at 12000 cells/well in 50 uL of DMEM media containing 10% FBS, pen/strep/L-Glutamine and non-essential amino acids, incubated overnight at 37° C./5% CO2. Media was then removed from the cells, incubated with 33 ul of Calcium-5 dye in assay buffer (Hank's buffer containing 20 mM HEPES, 0.04% Chaps and 2.5 mM Probenecid) for 60 minutes at 37° C. 2 uL of varying concentrations of compound in 40% DMSO in assay buffer (final DMSO concentration is 2.3%) were then added to the cells and incubated at 25° C. for 30 minutes. […] The range of peptide was from 1.5-3 μM. The final volume was 40 uL/well, with 2% DMSO. […] The data were analyzed by taking the peak signal over a portion of the range of the 60 scans and dividing this signal by the minimum signal for that same range.

Data set [1] addresses human Ether-á-go-go Related Gene (hERG) ion channel (Homo sapiens (Human), UniProt Q12809). Kind of data set: MK-499 Filter Binding Assay. How it is done: This assay is used to evaluate the potential of a compound to cause drug-induced long QT syndrome.
Drug cardiac arrhythmia is an important safety concern for pharmaceutical development and health regulatory authorities.
Then, 30 μL wash buffer (10 mM HEPES/NaOH, pH 7.4, 130 mM NaCl, 2 mM MgCl2, 1 mM CaCl2) equilibrated to RT were added to each well of the assay plate and subsequently transferred to the filter plate. The assay mixture was aspirated through the filter plate using a Biotek ELx405™ washer. The filter plate was washed twice with 100 μl cold wash buffer per wash and well and then dried in a drying oven for at least 75 min at 55° C. Afterwards, the bottom of each filter plate was heat sealed with a solid foil seal, then 10 μL of Microscint™ 0 (Perkin Elmer) were added to each well of the filter plate and finally, the top of each filter plate was sealed with a clear seal. The plates were stored for at least 20 min in a MicroBeta2 reader (Perkin Elmer) before they are counted (60 sec/well).

[2] abbreviates: membranes from HEK293 cell line expressing hERG, [35S]MK-0499 radioligand, read-out: MK499 IC50.

Read-outs that look alike come from different tables or passages of the source.

The values below come from US9701669B2, “Preparation and use of 7a-amide substituted- 6,6-difluoro bicyclic himbacine derivatives as PAR-1 receptor antagonists” (Merck Sharp & Dohme Corp., priority 2013, dated 2017).

As usually defined, the IC50 is the midpoint of a concentration-inhibition curve.

Sequence of PAR-1 receptor (P25116 22-425): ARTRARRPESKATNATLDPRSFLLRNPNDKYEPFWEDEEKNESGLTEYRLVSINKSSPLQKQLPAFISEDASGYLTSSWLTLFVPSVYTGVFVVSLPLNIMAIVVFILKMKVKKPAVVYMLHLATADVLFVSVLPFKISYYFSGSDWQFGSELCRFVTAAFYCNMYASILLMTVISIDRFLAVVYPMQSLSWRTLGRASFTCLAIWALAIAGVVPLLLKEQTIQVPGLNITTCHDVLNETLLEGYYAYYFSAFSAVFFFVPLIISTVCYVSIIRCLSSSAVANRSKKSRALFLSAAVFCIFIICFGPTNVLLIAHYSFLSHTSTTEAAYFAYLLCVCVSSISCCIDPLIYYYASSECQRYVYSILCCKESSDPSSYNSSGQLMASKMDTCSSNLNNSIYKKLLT
Sequence of human Ether-á-go-go Related Gene (hERG) ion channel (Q12809 whole entry): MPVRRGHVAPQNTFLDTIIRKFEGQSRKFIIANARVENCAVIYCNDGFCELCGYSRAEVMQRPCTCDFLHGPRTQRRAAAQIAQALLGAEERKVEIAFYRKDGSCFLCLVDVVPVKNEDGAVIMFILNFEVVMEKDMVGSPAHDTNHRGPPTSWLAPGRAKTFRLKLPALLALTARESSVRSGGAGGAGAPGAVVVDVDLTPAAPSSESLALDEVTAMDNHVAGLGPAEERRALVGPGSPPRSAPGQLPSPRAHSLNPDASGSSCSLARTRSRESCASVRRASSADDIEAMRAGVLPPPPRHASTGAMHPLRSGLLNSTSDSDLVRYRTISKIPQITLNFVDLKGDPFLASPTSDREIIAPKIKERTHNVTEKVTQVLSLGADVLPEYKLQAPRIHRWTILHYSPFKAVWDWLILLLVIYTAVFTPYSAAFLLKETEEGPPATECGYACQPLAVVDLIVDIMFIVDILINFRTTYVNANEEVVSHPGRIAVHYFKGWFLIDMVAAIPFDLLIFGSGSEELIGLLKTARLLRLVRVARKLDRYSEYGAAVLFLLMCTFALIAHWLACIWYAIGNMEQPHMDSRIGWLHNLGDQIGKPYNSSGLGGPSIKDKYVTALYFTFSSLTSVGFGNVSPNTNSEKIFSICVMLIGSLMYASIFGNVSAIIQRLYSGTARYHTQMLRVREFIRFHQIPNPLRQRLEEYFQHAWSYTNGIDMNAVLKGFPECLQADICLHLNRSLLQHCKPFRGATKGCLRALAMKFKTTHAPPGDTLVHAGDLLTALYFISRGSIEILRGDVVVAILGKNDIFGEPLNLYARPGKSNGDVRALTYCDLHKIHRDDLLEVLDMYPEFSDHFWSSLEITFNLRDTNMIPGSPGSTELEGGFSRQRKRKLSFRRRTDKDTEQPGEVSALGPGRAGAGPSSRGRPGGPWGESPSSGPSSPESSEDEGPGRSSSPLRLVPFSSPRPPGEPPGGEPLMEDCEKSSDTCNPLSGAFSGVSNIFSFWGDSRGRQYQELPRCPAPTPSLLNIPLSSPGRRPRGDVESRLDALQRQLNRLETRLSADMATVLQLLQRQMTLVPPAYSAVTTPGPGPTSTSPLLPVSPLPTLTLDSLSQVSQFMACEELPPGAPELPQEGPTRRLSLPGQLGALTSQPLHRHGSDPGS

Regarding `C[C@H]1OC(=O)[C@]2(C(N)=O)CC(F)(F)[C@@H](C)[C@H](/C=C/c3ccc(-c4cccc5c4OC(F)(F)O5)cn3)[C@H]12` [Example 10, (1R,3aR,6S,7R,7aS)-7-((E)-2-(5-(2,2-difluorobenzo[d][1,3]dioxol-4-yl)pyridin-2-yl)vinyl)-5,5-difluoro-1,6-dimethyl-3-oxooctahydroisobenzofuran-3a-carboxamide], the IC50 at PAR-1 receptor came to 4.49 nM; in data set [1] (setting [2]), 15400 nM. Regarding `COc1ncccc1-c1ccc(/C=C/[C@@H]2[C@@H]3[C@@H](C)OC(=O)[C@]3(CC(N)=O)CC(F)(F)[C@H]2C)nc1` [Example 16, 2-((1R,3aR,6S, 7R,7aS)-5,5-difluoro-7-((E)-2-(2′-methoxy-[3,3′-bipyridin]-6-yl)vinyl)-1,6-dimethyl-3-oxooctahydro-isobenzofuran-3a-yl)acetamide], the results for the IC50 (on PAR-1 receptor; in data set [1] (setting [2])) were 104 nM and 25900 nM, respectively. `COC(C(N)=O)[C@@]12CC(F)(F)[C@@H](C)[C@H](/C=C/c3ccc(-c4ccccc4C#N)cn3)[C@@H]1[C@@H](C)OC2=O` (mixture of isomers) [Example 19, (S and R)-2-((1R,3aR,6S,7R,7aS)-7-((E)-2-(5-(2-cyanophenyl)pyridin-2-yl)vinyl)-5,5-difluoro-1,6-dimethyl-3-oxooctahydroisobenzofuran-3a-yl)-2-methoxyacetamide]: the PAR-1 FLIPR IC50 on PAR-1 receptor (unit printed as 'mn' (apparent misprint of nM), same assay as E1, unit of the source corrected) is 3.02 nM. The IC50 in data set [1] (setting [2]) came to 47700 nM. As for `C[C@H]1OC(=O)[C@]2(C(C)(C)C(N)=O)CC(F)(F)[C@@H](C)[C@H](/C=C/c3ccc(-c4ccccc4C#N)cn3)[C@H]12` [Example 21, 2-((1R,3aR,6S,7R,7aS)-7-((E)-2-(5-(2-cyanophenyl)pyridin-2-yl)vinyl)-5,5-difluoro-1,6-dimethyl-3-oxooctahydroisobenzofuran-3a-yl)-2-methylpropanamide], the IC50 at PAR-1 receptor was determined as 17.1 nM.

With `Cc1nc(/C=C/[C@@H]2[C@@H]3[C@@H](C)OC(=O)[C@]3(C(N)=O)CC(F)(F)[C@H]2C)ccc1-c1ccccc1C#N` [Example 4, (1R,3aR,6S,7R, 7aS)-7-((E)-2-(5-(2-cyanophenyl)-6-methylpyridin-2-yl)vinyl)-5,5-difluoro-1,6-dimethyl-3-oxooctahydro-isobenzofuran-3a-carboxamide], the IC50 in data set [1] (human, pH 7.4) turned out to be 60000 nM. For `C[C@H]1OC(=O)[C@]2(N3CC(C(N)=O)C3)CC(F)(F)[C@@H](C)[C@H](/C=C/c3ccc(-c4cccc(F)c4)cn3)[C@H]12` [Example 13, 1-((1R,3aS,6S, 7R,7aS)-5,5-difluoro-7-((E)-2-(5-(3-fluorophenyl)pyridin-2-yl)vinyl)-1,6-dimethyl-3-oxo-octahydro-isobenzofuran-3a-yl)azetidine-3-carboxamide], at PAR-1 receptor, the IC50 worked out at 13.9 nM. With `C[C@H]1OC(=O)[C@]2(N3CC(C(N)=O)C3)CC(F)(F)[C@@H](C)[C@H](/C=C/c3ccc(-c4ccccc4C#N)cn3)[C@H]12` [Example 12, 1-((1R,3aS,6S,7R,7aS)-7-((E)-2-(5-(2-cyanophenyl)pyridin-2-yl)vinyl)-5,5-difluoro-1,6-dimethyl-3-oxo-octahydroisobenzofuran-3a-yl)azetidine-3-carboxamide], the IC50 at PAR-1 receptor stood at 5.7 nM; in data set [1] (setting [2]) it was 16300 nM.

Consider `C[C@H]1OC(=O)[C@]2(C(N)=O)CC(F)(F)[C@@H](C)[C@H](/C=C/c3ccc(-c4ccccc4C#N)cn3)[C@H]12` [Example 1, (1R,3aR,6S,7R,7aS)-7-((E)-2-(5-(2-cyanophenyl)pyridin-2-yl)vinyl)-5,5-difluoro-1,6-dimethyl-3-oxooctahydroisobenzofuran-3a-carboxamide], for which, at PAR-1 receptor, the IC50 was found to be 2.93 nM. For `Cc1c(F)cccc1-c1ccc(/C=C/[C@@H]2[C@@H]3[C@@H](C)OC(=O)[C@]3(C(N)=O)CC(F)(F)[C@H]2C)nc1` [Example 3, (1R,3aR, 6S,7R,7aS)-5,5-difluoro-7-((E)-2-(5-(3-fluoro-2-methylphenyl)pyridin-2-yl)vinyl)-1,6-dimethyl-3-oxooctahydro-isobenzofuran-3a-carboxamide], the values for the IC50 (at PAR-1 receptor; in data set [1] (setting [2])) were 1.37 nM and 12000 nM, respectively.

For `Cc1cccc(-c2ccc(/C=C/[C@@H]3[C@@H]4[C@@H](C)OC(=O)[C@]4(C(N)=O)CC(F)(F)[C@H]3C)nc2)c1F` [Example 2, (1R,3aR,6S,7R, 7aS)-5,5-difluoro-7-((E)-2-(5-(2-fluoro-3-methylphenyl)pyridin-2-yl)vinyl)-1,6-dimethyl-3-oxooctahydro-isobenzofuran-3a-carboxamide], the IC50 on PAR-1 receptor was determined as 3.8 nM; in data set [1] (setting [2]) it was 13000 nM. On to `C[C@H]1OC(=O)[C@]2(CCC(N)=O)CC(F)(F)[C@@H](C)[C@H](/C=C/c3ccc(-c4ccccc4C#N)cn3)[C@H]12` [Example 14, 3-((1R,3aR,6S,7R,7aS)-7-((E)-2-(5-(2-cyanophenyl)pyridin-2-yl)vinyl)-5,5-difluoro-1,6-dimethyl-3-oxooctahydroisobenzofuran-3a-yl)propanamide], for which, at PAR-1 receptor, the IC50 amounted to 4.4 nM. Still for that read-out and setting: to `C[C@H]1OC(=O)[C@]2(C(O)C(N)=O)CC(F)(F)[C@@H](C)[C@H](/C=C/c3ccc(-c4ccccc4C#N)cn3)[C@H]12` (mixture of isomers) [Example 20, (S and R)-2-((1R,3aR,6S, 7R,7aS)-7-((E)-2-(5-(2-cyanophenyl)pyridin-2-yl)vinyl)-5,5-difluoro-1,6-dimethyl-3-oxooctahydro-isobenzofuran-3a-yl)-2-hydroxyacetamide] belongs 4.41 nM; to `C[C@H]1OC(=O)[C@]2(NCC(N)=O)CC(F)(F)[C@@H](C)[C@H](/C=C/c3ccc(-c4ccccc4C#N)cn3)[C@H]12` [Example 18, 2-(((1R,3aS,6S,7R,7aS)-7-((E)-2-(5-(2-cyanophenyl)pyridin-2-yl)vinyl)-5,5-difluoro-1,6-dimethyl-3-oxooctahydroisobenzofuran-3a-yl)amino)acetamide], 4.3 nM. In the case of `C[C@H]1OC(=O)[C@]2(CC(N)=O)CC(F)(F)[C@@H](C)[C@H](/C=C/c3ccc(-c4cccnc4C#N)cn3)[C@H]12` [Example 17, 2-((1R,3aR,6S, 7R,7aS)-7-((E)-2-(2′-cyano-[3,3′-bipyridin]-6-yl)vinyl)-5,5-difluoro-1,6-dimethyl-3-oxooctahydro-isobenzofuran-3a-yl)acetamide], the IC50 on PAR-1 receptor stood at 21.2 nM. For `C[C@H]1OC(=O)[C@]2(CC(N)=O)CC(F)(F)[C@@H](C)[C@H](/C=C/c3ccc(-c4ccccc4C#N)cn3)[C@H]12` [Example 5, 2-((1R,3aR,6S,7R,7aS)-7-((E)-2-(5-(2-cyanophenyl)pyridin-2-yl)vinyl)-5,5-difluoro-1,6-dimethyl-3-oxooctahydroisobenzofuran-3a-yl)acetamide], the IC50 on PAR-1 receptor came to 3.14 nM. As for `C[C@H]1OC(=O)[C@]2(CCC(N)=O)CC(F)(F)[C@@H](C)[C@H](/C=C/c3ccc(-c4cccnc4C#N)cn3)[C@H]12` [Example 15, 3-((1R,3aR,6S, 7R,7aS)-7-((E)-2-(2′-cyano-[3,3′-bipyridin]-6-yl)vinyl)-5,5-difluoro-1,6-dimethyl-3-oxooctahydro-isobenzofuran-3a-yl)propanamide], the IC50 is 6.34 nM at PAR-1 receptor and 60000 nM in data set [1] (human, pH 7.4). As to `C[C@H]1OC(=O)[C@]2(C(N)=O)CC(F)(F)[C@@H](C)[C@H](/C=C/c3ccc(-c4cccnc4C#N)cn3)[C@H]12` [Example 11], the IC50 amounted to 9.68 nM at PAR-1 receptor and 60000 nM in data set [1] (setting [2]).
